# Laboratory results reported in US10941158B2, “Pyrazole ACC inhibitors and uses thereof” (Gilead Apollo, LLC, priority 2015, dated 2021).
# Read-outs that look alike come from different tables or passages of the source.
# Assays:
# human (hACC2) ACC2 = human (hACC2) ACC2 (Homo sapiens, UniProt O00763); test: In vitro Acetyl-CoA Carboxylase (ACC) inhibition assay (ADP-Glo), hACC2; assay type: biochemical
# Description: The detailed procedure is as follows. […] 10 μL ADP glo reagent was added. […] 20 μL kinase detection reagent was added.
# “NA” stands for “not assayed.”
# C. albicans ATCC 90028 = test: Anti-Fungal (Candida) Activity Assay, broth microtiter MIC; assay type: cell-based; settings: read-out: MIC C. albicans ATCC 90028
# Outline: (§1)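 Visual 48 h MIC endpoints are reported. Plates followed CLSI M27-A3 in RPMI 1640 plus MOPS.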
# C. krusei ATCC 6258 = test: as above; assay type: cell-based; settings: Pichia kudriavzevii, read-out: MIC C. krusei ATCC 6258
# Outline: as §1
# [1] = tested on: C. parapsilosis ATCC 22019; test: as above; assay type: cell-based; settings: Lodderomyces parapsilosis, read-out: MIC C. parapsilosis ATCC 22019
# Outline: as §1
# Botrtyis cinerea (Bc) = test: Growth inhibition assay of fungal pathogens; assay type: cell-based; settings: 48 h, read-out: Concentration at 90% Inhibition Bc
# Outline: (§2)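 OD600 (blank-subtracted) plus visual scoring at 48 h, vs 2% DMSO ctrl → % inhibition. Final cpd 50/10/2 or 2/0.4/0.08 ppm. Fm/Bc/Dm spores in 17% V8 broth; Rs as 1.5 mm plugs in ¼ PDB.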
# [2] = tested on: Collectotrichum graminicola (Cg); test: Growth inhibition assay of fungal pathogens; assay type: cell-based; settings: 48 h, read-out: Concentration at 90% Inhibition Cg
# Outline: (§3)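 Liquid-culture assay in which test compounds are applied at three final concentrations (50, 10, 2 ppm or 2, 0.4, 0.08 ppm). Inoculum levels follow 48 h growth curves for each fungus. Growth is monitored by OD600 and by eye, and the 48 h values give % inhibition against DMSO.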
# Diplodia maydis (Dm) = test: Growth inhibition assay of fungal pathogens; assay type: cell-based; settings: Stenocarpella maydis, 48 h, read-out: Concentration at 90% Inhibition Dm
# Outline: as §2
# [3] = tested on: Fusarium moniliforme (Fm); test: Growth inhibition assay of fungal pathogens; assay type: cell-based; settings: for IC90: Fusarium verticillioides, 48 h, read-out: Concentration at 90% Inhibition Fm
# Outline: as §2
# [4] = tested on: Fusarium virguliforme (Fv); test: Growth inhibition assay of fungal pathogens; assay type: cell-based; settings: 48 h
# Outline: as §3
# [5] = tested on: Phytophthora capsici (Pc); test: Growth inhibition assay of fungal pathogens; assay type: cell-based; settings: for IC90: Phytophthora capsici, read-out: Concentration at 90% Inhibition Pc
# Outline: as §3
# Rhizoctonia solani (Rs) = test: Growth inhibition assay of fungal pathogens; assay type: cell-based; settings: 48 h, read-out: Concentration at 90% Inhibition Rs
# Outline: as §2
# Septoria tritici (St) = test: Growth inhibition assay of fungal pathogens; assay type: cell-based; settings: for IC90: Zymoseptoria tritici, read-out: Concentration at 90% Inhibition St
# Outline: as §3
# fungal (fACC2) ACC2 = fungal (fACC2) ACC2 (UniProt Q00955); settings: read-out: fACC2 IC50; fungal ACC2, ADP-Glo
# fungal (fACC2) ACC2, sequence (Q00955 whole entry): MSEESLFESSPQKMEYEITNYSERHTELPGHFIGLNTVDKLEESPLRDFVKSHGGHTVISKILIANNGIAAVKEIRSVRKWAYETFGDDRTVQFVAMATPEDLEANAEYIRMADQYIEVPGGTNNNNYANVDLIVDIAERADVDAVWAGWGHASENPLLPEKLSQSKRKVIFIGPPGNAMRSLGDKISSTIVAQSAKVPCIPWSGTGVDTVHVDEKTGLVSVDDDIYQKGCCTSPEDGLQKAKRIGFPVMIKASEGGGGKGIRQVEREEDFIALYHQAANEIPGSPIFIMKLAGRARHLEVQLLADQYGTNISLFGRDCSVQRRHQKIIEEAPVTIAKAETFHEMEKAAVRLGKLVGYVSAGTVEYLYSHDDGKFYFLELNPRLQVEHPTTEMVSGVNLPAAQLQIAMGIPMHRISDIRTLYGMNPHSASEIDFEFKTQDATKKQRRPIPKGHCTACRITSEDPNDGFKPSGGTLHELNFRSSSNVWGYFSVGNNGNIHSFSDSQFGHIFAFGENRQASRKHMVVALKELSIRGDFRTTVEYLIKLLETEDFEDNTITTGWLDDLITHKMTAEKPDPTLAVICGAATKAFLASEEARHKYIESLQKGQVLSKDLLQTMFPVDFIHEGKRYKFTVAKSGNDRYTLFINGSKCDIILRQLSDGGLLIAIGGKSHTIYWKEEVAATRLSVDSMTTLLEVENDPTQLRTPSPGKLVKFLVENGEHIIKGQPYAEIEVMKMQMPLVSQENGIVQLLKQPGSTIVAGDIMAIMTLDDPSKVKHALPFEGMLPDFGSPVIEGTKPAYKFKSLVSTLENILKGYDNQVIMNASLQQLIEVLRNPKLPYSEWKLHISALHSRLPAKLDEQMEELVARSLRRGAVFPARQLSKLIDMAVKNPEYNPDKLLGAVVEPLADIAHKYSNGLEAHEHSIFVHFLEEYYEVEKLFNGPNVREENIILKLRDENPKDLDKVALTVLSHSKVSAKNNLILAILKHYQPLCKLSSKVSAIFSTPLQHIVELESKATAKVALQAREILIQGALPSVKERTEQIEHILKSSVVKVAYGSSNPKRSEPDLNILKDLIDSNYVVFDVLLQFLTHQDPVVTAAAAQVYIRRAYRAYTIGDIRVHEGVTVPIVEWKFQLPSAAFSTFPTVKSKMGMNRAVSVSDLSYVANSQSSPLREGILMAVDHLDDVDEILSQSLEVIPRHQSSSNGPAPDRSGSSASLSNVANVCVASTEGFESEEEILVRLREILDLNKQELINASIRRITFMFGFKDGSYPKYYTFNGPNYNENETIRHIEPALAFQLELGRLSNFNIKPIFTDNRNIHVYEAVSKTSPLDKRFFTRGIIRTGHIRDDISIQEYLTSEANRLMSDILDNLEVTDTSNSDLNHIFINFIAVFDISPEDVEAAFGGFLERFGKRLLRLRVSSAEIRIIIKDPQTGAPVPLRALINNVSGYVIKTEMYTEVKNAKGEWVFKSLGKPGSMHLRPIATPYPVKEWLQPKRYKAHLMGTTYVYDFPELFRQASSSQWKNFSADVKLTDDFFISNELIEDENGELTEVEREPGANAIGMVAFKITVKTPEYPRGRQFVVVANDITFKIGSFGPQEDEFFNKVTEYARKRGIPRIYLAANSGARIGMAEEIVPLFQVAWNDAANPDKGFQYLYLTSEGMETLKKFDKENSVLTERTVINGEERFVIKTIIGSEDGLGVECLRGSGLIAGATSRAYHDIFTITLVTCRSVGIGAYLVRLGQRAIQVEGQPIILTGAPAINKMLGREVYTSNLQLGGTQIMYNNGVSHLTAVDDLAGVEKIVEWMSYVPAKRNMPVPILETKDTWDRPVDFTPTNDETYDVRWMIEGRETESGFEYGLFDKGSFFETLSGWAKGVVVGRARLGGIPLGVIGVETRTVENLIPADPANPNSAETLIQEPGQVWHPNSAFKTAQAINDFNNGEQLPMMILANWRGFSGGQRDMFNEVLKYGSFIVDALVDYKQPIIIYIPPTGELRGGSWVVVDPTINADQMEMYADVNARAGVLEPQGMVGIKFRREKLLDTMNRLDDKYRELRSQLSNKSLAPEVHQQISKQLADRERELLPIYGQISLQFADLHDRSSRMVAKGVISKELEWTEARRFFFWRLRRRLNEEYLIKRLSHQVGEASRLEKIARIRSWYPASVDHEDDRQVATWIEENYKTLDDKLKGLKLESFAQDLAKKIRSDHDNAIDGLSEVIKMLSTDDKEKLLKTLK
# [6] = read-out: Concentration at 90% Inhibition Fv, Table 4a, 48 hours
# [7] = read-out: Concentration at 90% Inhibition Fv, Table 4b, 48 hours
# [8] = ATCC90028, 3 replicates, MIC recorded at 48 h
# [9] = ATCC6258, 3 replicates, MIC recorded at 48 h
# [10] = ATCC22019, 3 replicates, MIC recorded at 48 h
# [11] = Table 4a, 48 hours, read-out: Concentration at 90% Inhibition Fv
# [12] = Table 4b, 48 hours, read-out: Concentration at 90% Inhibition Fv
# human (hACC2) ACC2, sequence (O00763 whole entry): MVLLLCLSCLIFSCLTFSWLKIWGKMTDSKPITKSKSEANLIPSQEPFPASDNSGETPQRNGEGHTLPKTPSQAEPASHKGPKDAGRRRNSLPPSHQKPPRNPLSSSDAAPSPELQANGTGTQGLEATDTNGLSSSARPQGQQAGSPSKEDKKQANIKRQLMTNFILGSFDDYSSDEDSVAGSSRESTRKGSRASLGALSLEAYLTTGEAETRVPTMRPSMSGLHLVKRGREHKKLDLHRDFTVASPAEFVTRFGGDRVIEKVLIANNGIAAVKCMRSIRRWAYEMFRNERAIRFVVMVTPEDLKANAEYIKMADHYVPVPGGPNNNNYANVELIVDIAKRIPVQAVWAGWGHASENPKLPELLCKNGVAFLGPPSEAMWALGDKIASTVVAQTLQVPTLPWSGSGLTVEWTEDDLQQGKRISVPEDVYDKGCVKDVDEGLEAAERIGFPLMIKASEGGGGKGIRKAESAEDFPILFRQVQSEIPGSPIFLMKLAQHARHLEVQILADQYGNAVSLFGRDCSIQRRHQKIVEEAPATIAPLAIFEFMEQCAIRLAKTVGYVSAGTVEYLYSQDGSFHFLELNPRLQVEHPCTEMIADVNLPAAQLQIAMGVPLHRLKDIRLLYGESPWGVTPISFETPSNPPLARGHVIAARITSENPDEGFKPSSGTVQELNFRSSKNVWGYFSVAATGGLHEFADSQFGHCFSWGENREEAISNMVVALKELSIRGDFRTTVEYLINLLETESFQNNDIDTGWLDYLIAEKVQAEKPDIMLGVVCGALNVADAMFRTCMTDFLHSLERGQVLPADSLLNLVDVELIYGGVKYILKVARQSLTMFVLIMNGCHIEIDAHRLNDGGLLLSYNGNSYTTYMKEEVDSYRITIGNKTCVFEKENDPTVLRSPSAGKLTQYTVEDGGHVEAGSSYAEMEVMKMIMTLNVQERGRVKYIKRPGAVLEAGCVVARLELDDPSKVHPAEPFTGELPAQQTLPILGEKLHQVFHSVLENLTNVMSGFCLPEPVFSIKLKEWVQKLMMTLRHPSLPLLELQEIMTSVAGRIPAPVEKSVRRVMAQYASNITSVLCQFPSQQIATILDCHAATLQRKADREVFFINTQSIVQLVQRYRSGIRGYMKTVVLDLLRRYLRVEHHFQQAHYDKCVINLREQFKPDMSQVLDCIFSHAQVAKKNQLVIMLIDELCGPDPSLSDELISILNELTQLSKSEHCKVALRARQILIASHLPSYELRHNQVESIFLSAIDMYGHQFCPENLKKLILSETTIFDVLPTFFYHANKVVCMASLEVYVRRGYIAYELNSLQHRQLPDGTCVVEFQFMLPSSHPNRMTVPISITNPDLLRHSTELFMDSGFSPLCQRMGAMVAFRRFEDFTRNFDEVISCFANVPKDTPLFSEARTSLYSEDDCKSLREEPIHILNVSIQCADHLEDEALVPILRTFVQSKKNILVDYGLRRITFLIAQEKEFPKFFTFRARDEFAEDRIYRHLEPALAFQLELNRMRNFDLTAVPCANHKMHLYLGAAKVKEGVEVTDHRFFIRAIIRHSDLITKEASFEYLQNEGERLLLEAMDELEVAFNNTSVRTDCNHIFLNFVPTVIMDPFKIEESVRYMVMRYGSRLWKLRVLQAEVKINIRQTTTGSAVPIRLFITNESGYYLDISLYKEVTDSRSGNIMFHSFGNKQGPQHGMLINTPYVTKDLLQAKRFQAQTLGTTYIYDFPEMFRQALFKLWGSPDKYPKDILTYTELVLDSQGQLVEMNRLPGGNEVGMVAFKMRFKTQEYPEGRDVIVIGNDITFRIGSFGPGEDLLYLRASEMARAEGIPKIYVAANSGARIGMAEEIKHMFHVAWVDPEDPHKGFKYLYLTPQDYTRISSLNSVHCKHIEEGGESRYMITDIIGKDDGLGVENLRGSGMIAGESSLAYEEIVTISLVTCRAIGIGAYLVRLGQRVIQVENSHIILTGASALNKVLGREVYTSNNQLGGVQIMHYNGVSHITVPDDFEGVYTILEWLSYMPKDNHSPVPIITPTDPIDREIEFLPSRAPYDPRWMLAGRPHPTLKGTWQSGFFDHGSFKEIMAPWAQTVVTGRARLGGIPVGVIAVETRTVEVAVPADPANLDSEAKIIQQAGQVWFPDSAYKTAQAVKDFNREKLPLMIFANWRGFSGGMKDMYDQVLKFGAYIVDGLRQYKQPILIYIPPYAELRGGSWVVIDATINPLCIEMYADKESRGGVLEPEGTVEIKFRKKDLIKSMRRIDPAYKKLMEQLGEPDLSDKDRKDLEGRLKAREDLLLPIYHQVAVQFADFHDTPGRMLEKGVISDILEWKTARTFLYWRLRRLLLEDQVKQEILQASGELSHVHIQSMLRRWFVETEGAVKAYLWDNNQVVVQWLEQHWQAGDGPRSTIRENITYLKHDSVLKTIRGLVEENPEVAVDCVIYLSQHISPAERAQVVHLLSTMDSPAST
SMILES,IC50 (human (hACC2) ACC2) [nM],"MIC (C. albicans ATCC 90028; ATCC90028, 48 h) [µg/mL]","MIC (C. krusei ATCC 6258; ATCC6258, 48 h) [µg/mL]","MIC ([1]; ATCC22019, 48 h) [µg/mL]",IC90 (Botrtyis cinerea (Bc); Table 4a) [µg/mL],IC90 (Botrtyis cinerea (Bc); Table 4b) [µg/mL],IC90 ([2]; Table 4a) [µg/mL],IC90 ([2]; Table 4b) [µg/mL],IC90 (Diplodia maydis (Dm); Table 4a) [µg/mL],IC90 (Diplodia maydis (Dm); Table 4b) [µg/mL],IC90 [3] [µg/mL],"Concentration at 90% Inhibition Fm ([3]; Table 4b, 48 hours)","IC90 [4, 6] [µg/mL]","IC90 [4, 7] [µg/mL]","IC90 ([5]; 48 h, Table 4a) [µg/mL]","IC90 ([5]; 48 h, Table 4b) [µg/mL]",IC90 (Rhizoctonia solani (Rs); Table 4a) [µg/mL],IC90 (Rhizoctonia solani (Rs); Table 4b) [µg/mL],"IC90 (Septoria tritici (St); 48 h, Table 4a) [µg/mL]",IC50 (fungal (fACC2) ACC2) [nM],further results
"COc1ccc(F)cc1[C@H](Cn1c(=O)n(C(C)(C)C(=O)NC(C)C)c(=O)c2c(C)c(-n3cccn3)sc21)OC[C@@H](C)O [Compound I-39, 2-(1-((R)-2-(5-fluoro-2-methoxyphenyl)-2-((R)-2-hydroxy-propoxy)ethyl)-5-methyl-2,4-dioxo-6-(1H-pyrazol-1-yl)-1,4-dihydrothieno[2,3-d]pyrimidin-3(2H)-yl)-N-isopropyl-2-methylpropanamide]",3 to 10,> 4.1,2.1 to 4,> 4.1,2,2,0.4,0.4,10,2,0.4,A (“A” provided a compound concentration of 0.4 ppm at 90% inhibition of fungal pathogens),> 50,2,> 50,10,0.4,0.4,> 50,0.6 to 3,"IC90 (Septoria tritici (St); 48 h, Table 4b): 10 µg/mL"
"COc1ccc(F)cc1[C@H](Cn1c(=O)n(C(C)(C)C(=O)N2CCCC2)c(=O)c2c(C)c(-n3cccn3)sc21)OC[C@H](C)O [Compound I-40, 1-((R)-2-(5-fluoro-2-methoxyphenyl)-2-((S)-2-hydroxy-propoxy)ethyl)-5-methyl-3-(2-methyl-1-oxo-1-(pyrrolidin-1-yl)propan-2-yl)-6-(1H-pyrazol-1-yl)thieno[2,3-d]pyrimidine-2,4(1H,3H)-dione]",10 to 40,–,–,–,> 50,10,> 50,10,> 50,> 50,–,–,–,–,–,–,10,2,–,0.6 to 3,"MIC (C. albicans ATCC 90028; [8]): > 4.1 µg/mL; MIC (C. krusei ATCC 6258; [9]): 0.25 to 1 µg/mL; MIC [1, 10]: 2.1 to 4 µg/mL; IC90 ([3]; Table 4a, 48 hours): 2 µg/mL; IC90 ([3]; Table 4b, 48 hours): 2 µg/mL; IC90 [4, 11]: > 50 µg/mL; IC90 [4, 12]: 10 µg/mL; IC90 ([5]; Table 4a, 48 hours): > 50 µg/mL; Concentration at 90% Inhibition Pc ([5]; Table 4b, 48 hours): D (“D” provided a compound concentration of >50 ppm at 90% inhibition of fungal pathogens); Concentration at 90% Inhibition St (Septoria tritici (St); Table 4b, 48 hours): D (“D” provided a compound concentration of >50 ppm at 90% inhibition of fungal pathogens); IC90 (Septoria tritici (St); Table 4a, 48 hours): > 50 µg/mL"
"COc1ccc(F)cc1[C@H](Cn1c(=O)n(C(C)(C)C(=O)NC(C)C)c(=O)c2c(C)c(-n3cccn3)sc21)OCC(C)(C)O [Compound I-41, (R)-2-(1-(2-(5-fluoro-2-methoxyphenyl)-2-(2-hydroxy-2-methylpropoxy)ethyl)-5-methyl-2,4-dioxo-6-(1H-pyrazol-1-yl)-1,4-dihydro-thieno[2,3-d]pyrimidin-3(2H)-yl)-N-isopropyl-2-methylpropanamide]",3 to 10,> 4.1,> 4.1,> 4.1,2,2,2,2,10,2,0.4,A (“A” provided a compound concentration of 0.4 ppm at 90% inhibition of fungal pathogens),0.4,0.4,> 50,> 50,10,2,> 50,0.6 to 3,"IC90 (Septoria tritici (St); 48 h, Table 4b): 10 µg/mL"
"COc1ccc(F)cc1[C@H](Cn1c(=O)n(C(C)(C)C(=O)N2CCCC2)c(=O)c2c(C)c(-n3cccn3)sc21)OCC(C)(C)O [Compound I-42, (R)-1-(2-(5-fluoro-2-methoxyphenyl)-2-(2-hydroxy-2-methylpropoxy)ethyl)-5-methyl-3-(2-methyl-1-oxo-1-(pyrrolidin-1-yl)propan-2-yl)-6-(1H-pyrazol-1-yl)thieno[2,3-d]pyrimidine-2,4(1H,3H)-dione]",3 to 10,–,–,–,> 50,10,> 50,10,> 50,10,–,–,–,–,–,–,10,2,–,0.6 to 3,"MIC (C. albicans ATCC 90028; [8]): 2.1 to 4 µg/mL; MIC (C. krusei ATCC 6258; [9]): 2.1 to 4 µg/mL; MIC [1, 10]: > 4.1 µg/mL; IC90 ([3]; Table 4a, 48 hours): 0.4 µg/mL; IC90 ([3]; Table 4b, 48 hours): 0.4 µg/mL; IC90 [4, 11]: > 50 µg/mL; IC90 [4, 12]: 10 µg/mL; IC90 ([5]; Table 4a, 48 hours): > 50 µg/mL; Concentration at 90% Inhibition Pc ([5]; Table 4b, 48 hours): D (“D” provided a compound concentration of >50 ppm at 90% inhibition of fungal pathogens); Concentration at 90% Inhibition St (Septoria tritici (St); Table 4b, 48 hours): D (“D” provided a compound concentration of >50 ppm at 90% inhibition of fungal pathogens); IC90 (Septoria tritici (St); Table 4a, 48 hours): > 50 µg/mL"
"COCCO[C@@H](Cn1c(=O)n(C(C)(C)C(=O)NC(C)C)c(=O)c2c(C)c(-n3cccn3)sc21)c1cc(F)ccc1OC [Compound I-43, (R)-2-(I-(2-(5-fluoro-2-methoxyphenyl)-2-(2-methoxy-ethoxy)ethyl)-5-methyl-2,4-dioxo-6-(1H-pyrazol-1-yl)-1,4-dihydrothieno[2,3-d]pyrimidin-3(2H)-yl)-N-isopropyl-2-methylpropanamide]",10 to 40,1.1 to 2,0.25 to 1,2.1 to 4,> 50,10,> 50,> 50,> 50,10,2,B (“B” provided a compound concentration of 2.0 ppm at 90% inhibition of fungal pathogens),2,2,> 50,> 50,> 50,10,> 50,0.6 to 3,"IC90 (Septoria tritici (St); 48 h, Table 4b): > 50 µg/mL"
